Laboratory results as given in the supplement of paper PMC10307832.

Experiments:
Assay in all cases: relative viability (nuclei count vs DMSO), 5 days (fraction); higher = more cells survive
Pictilisib + Bortezomib = compound: CS(=O)(=O)N1CCN(Cc2cc3nc(-c4cccc5[nH]ncc45)nc(N4CCOCC4)c3s2)CC1 [Pictilisib] + CC(C)C[C@H](NC(=O)[C@H](Cc1ccccc1)NC(=O)c1cnccn1)B(O)O [Bortezomib] (partner 0.002 µM)
Method in brief: (§1)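 Cells from lung cancer lines were seeded into 1536-well plates and, one day later, dosed by pin tool. Treatments were either a single drug or a fixed dose of an anchor drug with five library-drug doses (not always all listed) in √10 steps. After 5 days, nuclei were stained in a one-step fixation (final 0.05% Triton X-100, 1% formaldehyde, 1 ug/ml Hoechst) and counted on 4× images, and relative viability is the treated-to-vehicle nuclei ratio, as the median of duplicate plates.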

Pictilisib + Luminespib = compound: CS(=O)(=O)N1CCN(Cc2cc3nc(-c4cccc5[nH]ncc45)nc(N4CCOCC4)c3s2)CC1 [Pictilisib] + CCNC(=O)c1noc(-c2cc(C(C)C)c(O)cc2O)c1-c1ccc(CN2CCOCC2)cc1 [Luminespib] (partner 0.01 µM)
Method in brief: as §1

MK-2206 + OSI-027 = compound: NC1(c2ccc(-c3nc4ccn5c(=O)[nH]nc5c4cc3-c3ccccc3)cc2)CCC1 [MK-2206] + COc1cccc2cc(-c3nc([C@H]4CC[C@H](C(=O)O)CC4)n4ncnc(N)c34)[nH]c12 [OSI-027] (partner 0.5 µM)
Method in brief: as §1

MK-2206 + Tozasertib = compound: NC1(c2ccc(-c3nc4ccn5c(=O)[nH]nc5c4cc3-c3ccccc3)cc2)CCC1 [MK-2206] + Cc1cc(Nc2cc(N3CCN(C)CC3)nc(Sc3ccc(NC(=O)C4CC4)cc3)n2)n[nH]1 [Tozasertib] (partner 0.1 µM)
Method in brief: as §1

MK-2206 + Alpelisib = compound: NC1(c2ccc(-c3nc4ccn5c(=O)[nH]nc5c4cc3-c3ccccc3)cc2)CCC1 [MK-2206] + Cc1nc(NC(=O)N2CCC[C@H]2C(N)=O)sc1-c1ccnc(C(C)(C)C(F)(F)F)c1 [Alpelisib] (partner 2 µM)
Method in brief: as §1

Cell Line	relative viability (Pictilisib + Bortezomib; first compound 0.02 µM)	relative viability (Pictilisib + Bortezomib; first compound 0.06325 µM)	relative viability (Pictilisib + Bortezomib; first compound 0.6325 µM)	relative viability (Pictilisib + Bortezomib; first compound 2 µM)	relative viability (Pictilisib + Luminespib; first compound 0.02 µM)	relative viability (Pictilisib + Luminespib; first compound 0.06325 µM)	relative viability (Pictilisib + Luminespib; first compound 0.6325 µM)	relative viability (Pictilisib + Luminespib; first compound 2 µM)	relative viability (MK-2206 + OSI-027; first compound 0.01 µM)	relative viability (MK-2206 + OSI-027; first compound 0.03162 µM)	relative viability (MK-2206 + OSI-027; first compound 0.3162 µM)	relative viability (MK-2206 + OSI-027; first compound 1 µM)	relative viability (MK-2206 + Tozasertib; first compound 0.01 µM)	relative viability (MK-2206 + Tozasertib; first compound 0.03162 µM)	relative viability (MK-2206 + Tozasertib; first compound 0.3162 µM)	relative viability (MK-2206 + Tozasertib; first compound 1 µM)	relative viability (MK-2206 + Alpelisib; first compound 0.01 µM)	relative viability (MK-2206 + Alpelisib; first compound 0.03162 µM)	relative viability (MK-2206 + Alpelisib; first compound 0.3162 µM)	relative viability (MK-2206 + Alpelisib; first compound 1 µM)
NCI-H650	1.04	0.938	0.526	0.445	0.759	0.809	0.802	0.483	0.476	0.509	0.417	0.415	0.703	0.76	0.751	0.772	1.09	1.15	1.11	0.983
IA-LM	0.791	0.721	0.732	0.308													0.809	0.869	0.578	0.544
A-427	1.03	0.949	0.985	0.858	0.864	0.97	0.855	0.724	0.529	0.47	0.439	0.372	0.218	0.197	0.191	0.207	1.12	1.12	1.06	1.08
NCI-H2347	1.05	1.12	0.938	0.567	0.444	0.518	0.423	0.264	0.384	0.375	0.413	0.277	0.521	0.631	0.561	0.496	0.967	1.11	1.11	0.973
NCI-H1793					0.152	0.189	0.152	0.168	0.274	0.288	0.229	0.199	0.349	0.345	0.302	0.284	0.721	0.816	0.634	0.727
NCI-H1651	0.948	0.939	0.911	0.707	0.841	0.65	0.889	0.473	0.786	0.684	0.807	0.784	0.623	0.667	0.665	0.59	0.921	0.906	0.938	0.898
HCC-78	0.458	0.384	0.294	0.2					0.394		0.351	0.285	1.52		0.38	0.365	0.372	0.336	0.256	0.21
NCI-H23	0.936	1.12	0.768	0.445	0.203	0.219	0.198	0.203	0.646	0.503	0.455	0.337	0.43	0.359	0.364	0.281	0.705	0.805	0.784	0.779
LOU-NH91	0.456	0.455	0.502	0.401	0.347	0.338	0.321	0.274	0.72	0.695	0.668	0.555	0.693	0.727	0.658	0.645	0.73	0.796	0.667	0.682
